Several values for one entry are separate records, joined by “and”; a condition that tells them apart may be missing. Identical values can stand only once. Like-named read-outs stand apart in the source and are kept apart here.
What was measured:
rat sciatic nerve = experiment: Rat sciatic nerve blockade with neurobehavioral examination (proprioception, motor function, nocifensive reaction); format: in vivo; settings: for Development of sciatic nerve blockade after injection: all rats
From the text: Male Sprague-Dawley rats were purchased from Taconic Farm, Inc., Germantown, N.Y., and kept in animal housing facilities with controlled humidity (20-30% relative humidity), room temperature, and a 12-h (6:00 AM-6:00 PM) light-dark cycle. Rats were handled before behavioral testing to familiarize them with the experiment and to minimize stress-induced analgesia. At the time of injections, animals weighed approximately 250-300 g. The experimenter was blinded to the drug/concentration used.
For sciatic nerve blockade, rats were lightly anesthetized by inhalation of sevoflurane and the landmarks (greater trochanter and ischial tuberosity) of the left hind limb were localized. […] The right hind limb was used as a control.
Neurobehavioral examination consisted of evaluation of motor function, proprioception, and nocifensive reaction immediately before inhalation of sevoflurane, at 2, 4, 6, 8, 10, 15, 20, 25, 30, 45, and 60 minutes after the injection, and then at 30-minute intervals until 750 minutes (12.5 hours). The following is a brief description of the neurobehavioral examination.
Motor function. Motor function was evaluated by measuring the “extensor postural thrust” of the hind limbs. The rat was held upright with the hind limb extended so that the body's weight was supported by the distal metatarsus and toes. The extensor thrust was measured as the gram force applied to a digital platform balance (Ohaus Lopro, Fisher Scientific, Florham Park, N.J.), the force that resists contact of the platform by the heel. The preinjection control value (range 130-165 gram) was considered 0% of the maximal possible effect (MPE). The reduction in this force, representing reduced extensor muscle contraction due to motor blockade, was calculated as a percentage of the control force. A force less than 20 grams (also referred to as weight of the “flaccid limb”) was considered 100% MPE.
Proprioception. Proprioception evaluation was based on resting posture and postural reactions (“tactile placing” and “hopping”). The functional deficit was graded as 3 (normal) or 0% MPE, 2 (slightly impaired), 1 (severely impaired), and 0 (complete) or 100% MPE. Keeping the rat in a normal resting posture with the toes flexed and the dorsi of the feet placed on the supporting surface, we evaluated tactile placing as the ability to reposition the toes.
Hopping response was evoked by lifting the front half of the animal off the ground and then lifting one hind limb at a time off the ground so that the animal moved laterally. This process normally evokes a prompt hopping with the weight-bearing limb in the direction of movement to avoid falling over. A predominantly motor impairment causes a prompt but weaker than normal response. Conversely with a predominantly proprioceptive blockade, delayed hopping is followed by greater lateral hops to avoid falling over or, in case of full blockade, no hopping at all.
Nocifensive reaction. Nocifensive reaction was evaluated by the withdrawal reflex and/or vocalization to pinch of a skin fold over the lateral metatarsus (cutaneous pain) and of the distal phalanx of the fifth toe (deep pain). Nocifensive reaction was graded 4 (normal or 0% MPE), 3 (25% MPE), 2 (50% MPE), 1 (75% MPE), and 0 (absent or 100% MPE).

Na+ channels = experiment: Whole-cell voltage clamp of Na+ currents in GH3 cells; format: cell-based, rat; settings: for Use-dependent (additional) blockade of Na+ currents: 3 μM, high-frequency stimulation at 5 Hz, 60 pulses; for Na+ channels blocked in the inactivated state / Na+ channels blocked in the resting state: 10 μM; for Na+ channels blocked in the inactivated state: conditioning pulse of −60 mV; for Na+ channels blocked in the inactivated state / Na+ channels blocked in the resting state / IC50: GH3 cells; for Na+ channels blocked in the resting state: conditioning pulse of −150 mV; for Time to complete washout: all concentrations and all protocols
Description: The whole-cell configuration of the patch-clamp technique was used to record macroscopic Na^+ currents at room temperatures ranging from 21 to 23 degrees Celsius. Command voltages were controlled by pCLAMP software (Axons Instruments, Inc., Foster City, Calif.) and delivered by a List-EPC7 patch clamp amplifier (List-Electronic, Darmstadt/Eberstadt, Germany). After the establishment of whole-cell configuration, cells were dialyzed for 30 minutes before data were acquired. Data were filtered at 5 kHz, sampled at 50 kHz, collected, and stored with pCLAMP software. Leak and capacitance currents were subtracted by P/4 protocol, which was not applied in the use-dependent block of Na^+ currents. Pipette electrodes were filled with an internal solution containing (in mM) 100 NaF, 30 NaCl, 10 ethylene glycol-bis(β-aminoethylether)N,N,N′,N′-tetraacetic acid (EGTA), and 10 hydroxyethylpiperazineethane sulfonic acid (HEPES) titrated with CsOH to pH 7.2. The external solution consisted of (in mM) 85 choline Cl, 65 NaCl, 2 CaCl2, and 10 HEPES titrated with tetramethylammoniumhydroxide to pH 7.4. Rat clonal pituitary GH3 cells were purchased from the American Type Culture, Collection (Rockville, Md.). Cells were split twice a week and maintained in Dulbecco's modified Eagle's medium supplemented with penicillin/streptomycin (1%) and heat-inactivated fetal bovine serum (10%). The 35 mm-culture dishes in which the cells were grown were also used as a recording chamber. To determine the voltage-dependent blockade by amitriptyline or bupivacaine, a prepulse or conditioning pulse at various voltages and long enough to permit the drug-channel binding interaction to reach its steady-state level was applied (pulse protocol and representative tracings are shown in FIG. 4A). In order to determine the potency of amitriptyline and bupivacaine for the resting and inactivated states, dose-response curves were subsequently constructed at holding potentials of −150 mV and −60 mV, respectively (FIG. 5). Finally, additional blockade provoked by high-frequency stimulation (use dependent blockade) was investigated (pulse protocol and representative tracings are shown in FIG. 6A).

[1] = reportedly; cited from earlier work
[2] = single injection at 5 mM into the rat sciatic notch
[3] = holding potential −60 mV, read-out: 50% inhibitory concentration (IC50), inactivated state
[4] = holding potential −150 mV, read-out: 50% inhibitory concentration (IC50), resting state

Compound: C[N+](C)(C)CC/C=C1\c2ccccc2COc2ccccc21 [N-methyl doxepin, N-methyl doxepin bromide]
- Duration for complete blockage of motor (rat sciatic nerve; 5 mM, pH 7.4): 5.0 ± 0.5 h
- Duration for complete blockage of nociception (rat sciatic nerve; 5 mM, pH 7.4): 5.3 ± 0.3 h
- Duration for complete blockage of proprioception (rat sciatic nerve; 5 mM, pH 7.4): 5.0 ± 0.5 h
- Time to reach full recovery of motor (rat sciatic nerve; 5 mM, pH 7.4): 10.3 ± 0.2 h
- Time to reach full recovery of nociception (rat sciatic nerve; 5 mM, pH 7.4): 9.9 ± 0.2 h
- Time to reach full recovery of proprioception (rat sciatic nerve; 5 mM, pH 7.4): 9.5 ± 0.3 h
- Development of sciatic nerve blockade after injection (rat sciatic nerve): complete sciatic nerve blockade

Compound: C[N+](C)(CCC=C1c2ccccc2CCc2ccccc21)CCc1ccccc1.[Br-] [N-phenyl-ethyl amitriptyline, N-phenyl-ethyl amitriptyline bromide]
- Extension of duration of complete nerve block over parent drug (rat sciatic nerve; 5 mM, 5 vs. 70 hrs): more than 10 fold
- Duration of complete sciatic nerve block (rat sciatic nerve; [2]): 70 to 80 h
- Full recovery of function (rat sciatic nerve; [2]): 5 to 6 days
- Inhibition of sodium channels in vitro (Na+ channels): strong tonic and use-dependent inhibition

Compound: CN(C)CCC=C1c2ccccc2CCc2ccccc21 [amitriptyline]
- Duration of complete blockade, motor (rat sciatic nerve; 5 mM): 168.7 ± 7.9 min
- Duration of complete blockade, nociception (rat sciatic nerve; 5 mM): 217.5 ± 19.4 min
- Time to full recovery of function, motor function (rat sciatic nerve; 5 mM): 270 ± 13.9 min
- Time to full recovery of function, nociception (rat sciatic nerve; 5 mM): 352.5 ± 12.4 min
- Time to full recovery of function, proprioception (rat sciatic nerve; 5 mM): 255.0 ± 11.3 min
- Duration of complete blockade, motor (rat sciatic nerve; 10 mM): 402.9 ± 27.7 min
- Duration of complete blockade, nociception (rat sciatic nerve; 10 mM): 454.8 ± 38.4 min and 454.3 ± 38.4 min
- Duration of complete blockade, proprioception (rat sciatic nerve; 10 mM): 467.1 ± 35.8 min
- Time to full recovery of function, motor function (rat sciatic nerve; 10 mM): 582.6 ± 32.6 min
- Time to full recovery of function, nociception (rat sciatic nerve; 10 mM): 655.7 ± 27.3 min
- Time to full recovery of function, proprioception (rat sciatic nerve; 10 mM): 578.6 ± 39.7 min
- Onset: time to full nociceptive, motor and proprioceptive blockade (rat sciatic nerve; 0.2 ml 5 mM at sciatic nerve): 30 min
- Onset: time to full nociceptive, motor and proprioceptive blockade (rat sciatic nerve; 0.2 ml 10 mM at sciatic nerve): 6 min
- Development of sciatic nerve blockade after injection (rat sciatic nerve): complete sciatic nerve blockade
- Use-dependent (additional) blockade of Na+ currents (Na+ channels): ~50%
- Na+ channels blocked in the inactivated state (Na+ channels): > 95%
- Na+ channels blocked in the resting state (Na+ channels): ~15%
- Time to complete washout (Na+ channels): ≤ 5 min
- IC50 (Na+ channels; [3]): 0.9 ± 0.1 µM
- IC50 (Na+ channels; [4]): 141 ± 4.4 µM
- Hill coefficient, inactivated state (Na+ channels; −60 mV): 1.35±0.15
- Potency relative to bupivacaine, inactivated state (Na+ channels; −60 mV): ~10 ×
- Hill coefficient, resting state (Na+ channels; −150 mV): 1.56±0.03
- Potency relative to bupivacaine, resting state (Na+ channels; −150 mV): ~15 ×

Compound: CCCCN1CCCCC1C(=O)Nc1c(C)cccc1C (centres unmarked) [bupivacaine]
- Duration of complete blockade, motor (rat sciatic nerve; 15.4 mM): 87.5 ± 14.7 min
- Duration of complete blockade, nociception (rat sciatic nerve; 15.4 mM): 90 ± 13.4 min
- Duration of complete blockade, proprioception (rat sciatic nerve; 15.4 mM): 90 ± 13.4 min
- Time to full recovery of function, motor function (rat sciatic nerve; 15.4 mM): 160.0 ± 6.3 min
- Time to full recovery of function, proprioception (rat sciatic nerve; 15.4 mM): 155.0 ± 9.2 min
- Onset: time to full nociceptive, motor and proprioceptive blockade (rat sciatic nerve; 0.2 ml 15.4 mM at sciatic nerve): 4 min
- Duration of major nerve block [1]: three to twelve
- Use-dependent (additional) blockade of Na+ currents (Na+ channels): ~14%
- Na+ channels blocked in the inactivated state (Na+ channels): > 70%
- Na+ channels blocked in the resting state (Na+ channels): essentially none
- Time to complete washout (Na+ channels): ≤ 3 min
- IC50 (Na+ channels; [3]): 9.5 ± 0.6 µM
- IC50 (Na+ channels; [4]): 9.5 ± 0.6 µM
- Hill coefficient, inactivated state (Na+ channels; −60 mV): 1.16±0.08
- Hill coefficient, resting state (Na+ channels; −150 mV): 1.12±0.04

From US7074961B2, “Antidepressants and their analogues as long-acting local anesthetics and analgesics” (The Brigham and Women's Hospital, Inc., priority 2000, dated 2006)
